Data reported in publication PMC12675575, “A BRET biosensor for measuring uncompetitive engagement of PRMT5 complexes in cells” (Nature Communications, 2025).
Several values for one entry are separate records, joined by “and”; a condition that tells them apart may be missing. Identical values can stand only once. Like-named read-outs stand apart in the source and are kept apart here.

Assays:
NL-PRMT5 with WDR77 = target: T1, NL-PRMT5 with WDR77 (Homo sapiens, UniProt O14744); experiment: MRTX1719 kinetic washout (residence time) NanoBRET experiment in HEK293 cells; format: cell-based; details: 100uM MTA
T1 construct: host or cells: HEK293
T1 sequence (O14744 whole entry): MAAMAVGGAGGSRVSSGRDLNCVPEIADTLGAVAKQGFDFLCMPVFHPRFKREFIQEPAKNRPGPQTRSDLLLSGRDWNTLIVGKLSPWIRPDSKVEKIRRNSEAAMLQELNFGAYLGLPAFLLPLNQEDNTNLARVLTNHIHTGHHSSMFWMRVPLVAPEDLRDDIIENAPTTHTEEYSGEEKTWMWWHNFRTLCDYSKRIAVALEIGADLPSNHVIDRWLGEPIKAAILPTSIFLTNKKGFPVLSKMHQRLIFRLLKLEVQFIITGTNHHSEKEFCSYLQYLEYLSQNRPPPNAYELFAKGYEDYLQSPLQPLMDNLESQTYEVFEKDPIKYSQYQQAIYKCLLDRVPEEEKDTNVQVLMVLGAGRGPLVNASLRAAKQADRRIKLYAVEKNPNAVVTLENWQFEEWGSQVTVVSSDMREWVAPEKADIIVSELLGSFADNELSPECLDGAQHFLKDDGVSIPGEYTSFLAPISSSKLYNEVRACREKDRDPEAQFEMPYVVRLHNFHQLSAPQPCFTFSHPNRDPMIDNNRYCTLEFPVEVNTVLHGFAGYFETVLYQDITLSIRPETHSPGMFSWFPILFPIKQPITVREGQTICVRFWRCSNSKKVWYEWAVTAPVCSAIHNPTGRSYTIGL
T1 sequence (Q9BQA1 whole entry partner): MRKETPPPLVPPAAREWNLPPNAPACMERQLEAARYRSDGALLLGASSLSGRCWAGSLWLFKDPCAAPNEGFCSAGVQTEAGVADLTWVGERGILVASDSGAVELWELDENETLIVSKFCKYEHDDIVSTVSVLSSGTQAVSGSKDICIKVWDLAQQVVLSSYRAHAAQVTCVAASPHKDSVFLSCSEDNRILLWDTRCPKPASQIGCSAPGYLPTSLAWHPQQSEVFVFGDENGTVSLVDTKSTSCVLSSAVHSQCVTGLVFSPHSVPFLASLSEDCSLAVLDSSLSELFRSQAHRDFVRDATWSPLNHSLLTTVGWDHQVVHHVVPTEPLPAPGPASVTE
Procedure: On the next day, cells were resuspended in a 15 mL falcon tube and adjusted to 2 × 10^5 cells/mL in assay medium (OptiMEM with 1% FBS). […] After incubation, cells were centrifuged at 300 × g for 5 min, medium was aspirated and cells were washed with pre-warmed assay medium, centrifuged again and adjusted to 2 × 10^5 cells/mL. For the full occupancy control, MTA and compound concentrations were maintained. 34 μL of cells were added per well in a seeded into 96-well non-binding surface-treated plates (Corning), followed by addition of 36 μL of Complete 2x Substrate (prepared by combining Nano-Glo Substrate and Extracellular NanoLuc Inhibitor in Opti-MEM, according to the manufacturer’s protocol (Promega)). Then, 2 μL of ETP CBH-002 at a final concentration of 30 nM were added before immediate readout at the PheraSTAR FSX for 6 h. Readout and analysis were conducted as described earlier.

NLuc-PRMT5 = NLuc-PRMT5 (Homo sapiens, UniProt O14744); experiment: BRET probe sensitivity to exogenous MTA in live HEK293 cells expressing NLuc-PRMT5; format: cell-based; parameters: host or cells: HEK293 (live cells; digitonin lysate for the SAM titration); details: for remaining activity at […] / remaining activity at 1000 µM: Log([MTA]), room temperature, read-out: Normalized BRET probe signal; for remaining activity at 1000 µM: uM 3.00
Sequence of NLuc-PRMT5 (O14744 whole entry): as the sequence (O14744 whole entry) above
Sequence of NLuc-PRMT5 (Q9BQA1 whole entry partner): as the sequence (Q9BQA1 whole entry partner) above
Procedure: To measure BRET probe sensitivity to both MAT2A inhibition and exogenous MTA in live cells, HEK293 cells were pre-treated with 30 nM CBH-002 and incubated at 37 °C and 5% CO2 for 2 h. For MAT2A inhibition, a 20 µM, 3-fold, 11 pt titration series of Compound A (Selleckchem) was added to wells. Cells were incubated either at 37 °C (Fig. 3D) or room temperature (Fig. S3D). Data were normalized using Eq. (2), where BRETMIN = instrument background (no CBH-002), and BRETMAX = 2 h vehicle treatment, and fit curves were generated using Eq. (1). For MTA sensitivity cells were treated with a 1 mM, 11 pt, 2-fold series of MTA (Sigma) and cells were incubated at room temperature for 2 h, reading in 15 min intervals. Data were normalized using Eq. (2), where BRETMIN = instrument background (no CBH-002), and BRETMAX = 2 h + vehicle treatment. Data were fit with Eq. (1).

CSC[C@H]1O[C@@H](n2cnc3c(N)ncnc32)[C@H](O)[C@@H]1O [MTA, methylthioadenosine]
BRET, Figure S5I (NL-PRMT5 with WDR77; time 0 min): 0.1105 and 0.1241 and 0.1192 and 0.1078 and 0.1088 and 0.1195 and 0.1138 and 0.1151 | BRET, Figure S5I (NL-PRMT5 with WDR77; time 6 min): 0.3119 and 0.3036 and 0.3616 and 0.2837 and 0.2843 and 0.315 and 0.3325 and 0.3197 | BRET, Figure S5I (NL-PRMT5 with WDR77; time 12 min): 0.5293 and 0.4857 and 0.5913 and 0.4586 and 0.456 and 0.5044 and 0.5405 and 0.5123 | BRET, Figure S5I (NL-PRMT5 with WDR77; time 18 min): 0.7285 and 0.6611 and 0.7995 and 0.6306 and 0.6158 and 0.6735 and 0.7234 and 0.6889 | BRET, Figure S5I (NL-PRMT5 with WDR77; time 24 min): 0.8959 and 0.8098 and 0.9637 and 0.7786 and 0.7595 and 0.8227 and 0.869 and 0.8404 | BRET, Figure S5I (NL-PRMT5 with WDR77; time 30 min): 1.03 and 0.937 and 1.09 and 0.9086 and 0.8803 and 0.9486 and 0.9887 and 0.9612 | BRET, Figure S5I (NL-PRMT5 with WDR77; time 36 min): 1.134 and 1.042 and 1.191 and 1.015 and 0.9796 and 1.049 and 1.086 and 1.061 | BRET, Figure S5I (NL-PRMT5 with WDR77; time 42 min): 1.201 and 1.125 and 1.257 and 1.0947 and 1.057 and 1.127 and 1.168 and 1.1428 | BRET, Figure S5I (NL-PRMT5 with WDR77; time 48 min): 1.264 and 1.1938 and 1.301 and 1.164 and 1.1261 and 1.183 and 1.221 and 1.192 | BRET, Figure S5I (NL-PRMT5 with WDR77; time 54 min): 1.305 and 1.245 and 1.342 and 1.215 and 1.178 and 1.2272 and 1.267 and 1.255 | BRET, Figure S5I (NL-PRMT5 with WDR77; time 60 min): 1.34 and 1.2815 and 1.366 and 1.252 and 1.226 and 1.27 and 1.304 and 1.278 | BRET, Figure S5I (NL-PRMT5 with WDR77; time 66 min): 1.37 and 1.322 (2×) and 1.406 and 1.285 and 1.248 and 1.298 and 1.329 | BRET, Figure S5I (NL-PRMT5 with WDR77; time 72 min): 1.398 and 1.341 and 1.428 and 1.319 | remaining activity at […] (NLuc-PRMT5; HEK293, 0.5 h, uM 0.29, Time (min) 30): 98.1% | remaining activity at […] (NLuc-PRMT5; HEK293, 0.5 h, uM 0.59, Time (min) 30): 97.9% | remaining activity at […] (NLuc-PRMT5; HEK293, 0.5 h, uM 0.89, Time (min) 30): 99.1% | remaining activity at […] (NLuc-PRMT5; HEK293, 0.5 h, uM 1.19, Time (min) 30): 97.4% | remaining activity at […] (NLuc-PRMT5; HEK293, 0.5 h, uM 1.49, Time (min) 30): 95.2% | remaining activity at […] (NLuc-PRMT5; HEK293, 0.5 h, uM 1.80, Time (min) 30): 93% | remaining activity at […] (NLuc-PRMT5; HEK293, 0.5 h, uM 2.10, Time (min) 30): 90.2% | remaining activity at […] (NLuc-PRMT5; HEK293, 0.5 h, uM 2.40, Time (min) 30): 87.8% | remaining activity at […] (NLuc-PRMT5; HEK293, 0.5 h, uM 2.70, Time (min) 30): 86.4% | remaining activity at 1000 µM (NLuc-PRMT5; HEK293, 0.5 h, Time (min) 30): 85.4% | remaining activity at […] (NLuc-PRMT5; HEK293, 1 h, uM 0.29, Time (min) 60): 99.2% | remaining activity at […] (NLuc-PRMT5; HEK293, 1 h, uM 0.59, Time (min) 60): 99.7% | remaining activity at […] (NLuc-PRMT5; HEK293, 1 h, uM 0.89, Time (min) 60): 98.1% | remaining activity at […] (NLuc-PRMT5; HEK293, 1 h, uM 1.19, Time (min) 60): 96.8% | remaining activity at […] (NLuc-PRMT5; HEK293, 1 h, uM 1.49, Time (min) 60): 94.8% | remaining activity at […] (NLuc-PRMT5; HEK293, 1 h, uM 1.80, Time (min) 60): 91.1% | remaining activity at […] (NLuc-PRMT5; HEK293, 1 h, uM 2.10, Time (min) 60): 87.7% | remaining activity at […] (NLuc-PRMT5; HEK293, 1 h, uM 2.40, Time (min) 60): 84.6% | remaining activity at […] (NLuc-PRMT5; HEK293, 1 h, uM 2.70, Time (min) 60): 79.9% | remaining activity at 1000 µM (NLuc-PRMT5; HEK293, 1 h, Time (min) 60): 78.1% | remaining activity at […] (NLuc-PRMT5; HEK293, 2 h, uM 0.29, Time (min) 120): 98.3% | remaining activity at […] (NLuc-PRMT5; HEK293, 2 h, uM 0.59, Time (min) 120): 98.5% | remaining activity at […] (NLuc-PRMT5; HEK293, 2 h, uM 0.89, Time (min) 120): 97.2% | remaining activity at […] (NLuc-PRMT5; HEK293, 2 h, uM 1.19, Time (min) 120): 96% | remaining activity at […] (NLuc-PRMT5; HEK293, 2 h, uM 1.49, Time (min) 120): 93.7% | remaining activity at […] (NLuc-PRMT5; HEK293, 2 h, uM 1.80, Time (min) 120): 90% | remaining activity at […] (NLuc-PRMT5; HEK293, 2 h, uM 2.10, Time (min) 120): 85.1% | remaining activity at […] (NLuc-PRMT5; HEK293, 2 h, uM 2.40, Time (min) 120): 81.7% | remaining activity at […] (NLuc-PRMT5; HEK293, 2 h, uM 2.70, Time (min) 120): 75.7% | remaining activity at 1000 µM (NLuc-PRMT5; HEK293, 2 h, Time (min) 120): 72.8% | Time to plateau of BRET inhibition (NLuc-PRMT5; live HEK293, room temperature): ~ 2 h
